In publication PMC7168710, “Antibacterial Activity of Rationally Designed Antimicrobial Peptides” (International Journal of Microbiology, 2020):
In brackets after ≈: the same amount, converted by molar mass.

What was measured:
[1] = system: methicillin-sensitive S. aureus (ATCC 25923); assay: Microtiter broth dilution MIC, MSSA; type: cell-based, Staphylococcus aureus; settings: for MIC, MSSA: microtiter broth dilution (CLSI), TSB, 0.5 McFarland, 24 h 37°C, INT 3 h, absorbance 620 nm, MIC = about 90% killing of inoculum, triplicate, repeated three times; for Sensitivity of MSSA (ATCC 25923) to the peptide: microtiter screening, up to 500 μg/ml
Procedure: (§1) The antibacterial activity of the putative antimicrobial peptides was carried out on Staphylococcus aureus spp., a Gram-positive bacterium obtained from the American Type Culture Collection (ATCC), with the S. aureus spp. comprising of the methicillin-sensitive S. aureus (ATCC 25923) and the methicillin-resistant S. aureus (ATCC 33591) strains. The other bacterial strains tested were K. pneumoniae (ATCC 700603) and P. aeruginosa (ATCC 22108) which are Gram-negative bacteria.
(§2) A stock solution of AMPs was prepared by dissolving an amount of AMPs in sterile distilled water (dH2O), and the various AMP working concentrations used in the microtiter broth dilution assay were prepared in two-fold serial dilutions starting at a concentration of 500 μg/ml to 1.5625 μg/ml. Ampicillin was utilized as the positive control in this assay and a working stock solution of 100 μg/ml was prepared in distilled water.
(§3) The microtiter broth dilution method was employed to measure the antibacterial activity of the AMP's. The assay was performed according to the standards and guidelines as stipulated in the Clinical and Laboratory Standards Institute (CLSI). In brief, the test microorganisms (MRSA (ATCC 33591), MSSA (ATCC 25923), K. pneumoniae (ATCC 700603), and P. aeruginosa (ATCC 22108)) were grown to the midlogarithmic phase in Tryptic Soy Broth (TSB) on a shaker set at 37°C and shaking at 150 rpm. The turbidity was adjusted to a 0.5 McFarland standard with a final volume of 10 ml. From the stock of prepared AMP solutions, various working peptide concentrations (500 μg/ml to 1.5625 μg/ml) were prepared, and a mixture of the bacteria with the peptides was incubated in a 96 well flat bottom plate for 24 h at 37°C. Following 24 h incubation, 40 μl of 2-(4-iodophenyl)-3-(4-nitrophenyl)-5-phenyl-2H-tetrazolium (INT) was added to each well and incubated again for 3 h. Absorbance readings were taken at 620 nm on a microtiter plate reader (Omega®POLARstar BMG Labtech, USA).
(§4) All the antibacterial assays of the AMPs were prepared in triplicate, and the experiments were repeated three times to ensure the reproducibility of the testing. Absorbance results were exported into an Excel file, where they were transformed into a percentage, in a Normalizing process. The MIC of each peptide was defined as the concentration resulting in about 90% killing of the initial inoculums.

[2] = system: K. pneumoniae (ATCC 700603); assay: Growth inhibitory assay (time curve, OD620), K. pneumoniae; type: cell-based, Klebsiella pneumoniae; settings: for Growth inhibition of K. pneumoniae over time: OD620 measured 3 to 8 h after treatment, 96-well plates, different peptide concentrations (25 μg/ml and lower)
Procedure: (§5) The growth curves for K. pneumoniae (ATCC 700603) and P. aeruginosa (ATCC 22108) treated with Molecule 3 and Molecule 7 over time were determined based on measurements taken at 620 nm at each collection time. Different concentrations of the peptide were added to the tested strains (K. pneumonia and P. aeruginosa), which were cultured in 96 well plates using the same method as used for the determination of the antimicrobial activity of the AMPs and the MIC.
(§6) In addition to the determined MICs, we investigated the rate at which the peptides influence the bacterial growth over time (Figures 1 and 2). The OD620 was measured from 3 to 8 h after treatment with a microplate reader, with Ampicillin as a positive control.

[3] = system: methicillin-resistant S. aureus (ATCC 33591); assay: Microtiter broth dilution MIC, MRSA; type: cell-based, Staphylococcus aureus; settings: for MIC, MRSA: microtiter broth dilution (CLSI), TSB, 0.5 McFarland, 24 h 37°C, INT 3 h, absorbance 620 nm, MIC = about 90% killing of inoculum, triplicate, repeated three times; for Sensitivity of MRSA (ATCC 33591) to the peptide: microtiter screening, up to 500 μg/ml
Procedure: as §1, §2, §3, §4

[4] = system: P. aeruginosa (ATCC 22108); assay: Growth inhibitory assay (time curve, OD620), P. aeruginosa; type: cell-based, Pseudomonas aeruginosa; settings: for Growth inhibition of P. aeruginosa over time: OD620 measured 3 to 8 h after treatment, 96-well plates, different peptide concentrations (25 μg/ml and lower)
Procedure: as §5, §6

[5] = system: HepG2 cell line; assay: MTT cytotoxicity assay, HepG2; type: cell-based, human; settings: 48 h treatment; for cell lines inhibition, HepG2: 25 μg/ml peptide; for Cell viability, HepG2: 100 μg/ml peptide, one value given for both peptides, repeated three times
Procedure: (§7) The cytotoxicity activity of the AMPs was measured by using the 3-(4,5-dimethylthiazol-2-yl)-2,5- diphenyltetrazolium bromide (MTT) assay as described by Freimoser. In brief, after the trypsinisation of HEK293T and HepG2 cells, 1 × 10^4 cells/well were seeded in a 96-well sterile plate and grown to confluence in Dulbecco's modified Eagle's medium containing 10% fetal calf serum. Molecule 3 and Molecule 7 were each added to the wells at different concentrations (10 μg/ml, 25 μg/ml, 50 μg/ml, and 100 μg/ml). Cells treated with 6% DMSO served as positive control. After 48 h after treatment with the peptides, 20 μl of MTT solution was added to each well, and the plates were incubated in a humidified incubator for 3 h in 5% CO2 at 37°C. After incubation, the media was removed and dimethyl sulfoxide (DMSO) (100 μl per well) was added into each well and the plate was again incubated in a shaker at 37°C, 5% CO2 incubator for 10 min. The plates were gently swirled for 10 min at room temperature to dissolve the precipitate. The absorbance was determined using a multiplate reader (Omega®POLARstar BMG Labtech, USA) at a wavelength of 570 nm, 600 nm, and 630 nm.
(§8) The assay was repeated three times to confirm the reproducibility of the experiment. The final absorbance of the treated cells was obtained by subtracting the background absorbance of the multi-well plate at 630 nm and from the 570 nm measurements. The percentage cell viability was calculated using the following formulae:(1) Cell viability %=OD570−OD630Treated sample/OD570−OD630Untreated control×100.
(§9) Absorbance results were exported into an Excel file, where they were transformed into a percentage, in a process called normalizing.

[6] = system: K. pneumoniae (ATCC 700603); assay: Microtiter broth dilution MIC, K. pneumoniae; type: cell-based, Klebsiella pneumoniae; settings: for MIC, K. pneumoniae: microtiter broth dilution (CLSI), TSB, 0.5 McFarland, 24 h 37°C, INT 3 h, absorbance 620 nm, MIC = about 90% killing of inoculum, triplicate, repeated three times
Procedure: as §1, §2, §3, §4

[7] = system: HEK293T cell line; assay: MTT cytotoxicity assay, HEK293T; type: cell-based, human; settings: 48 h treatment; for cell lines inhibition, HEK293T: 25 μg/ml peptide; for Cell viability, HEK 293T: 100 μg/ml peptide, one value given for both peptides, repeated three times
Procedure: as §7, §8, §9

[8] = system: P. aeruginosa (ATCC 22108); assay: Microtiter broth dilution MIC, P. aeruginosa; type: cell-based, Pseudomonas aeruginosa; settings: for MIC, P. aeruginosa: microtiter broth dilution (CLSI), TSB, 0.5 McFarland, 24 h 37°C, INT 3 h, absorbance 620 nm, MIC = about 90% killing of inoculum, triplicate, repeated three times
Procedure: as §1, §2, §3, §4

[9] = 100 μg/ml, OD620 time curve 3 to 8 h

RWKIFKKIEKMGRNIRDGIVKAGPAIEVLGSAKAIGK [Molecule 7, putative anti-HIV antimicrobial peptide, chemically synthesized by solid-phase method]
MIC, MSSA [1]: >500 µg/mL
Sensitivity of MSSA (ATCC 25923) to the peptide [1]: insensitive
Growth inhibition of K. pneumoniae over time [2]: could not suppress the growth of K. pneumoniae (ATCC 700603) at concentrations lower than the respective MIC values
MIC, MRSA [3]: >500 µg/mL
Sensitivity of MRSA (ATCC 33591) to the peptide [3]: insensitive
Growth inhibition of P. aeruginosa over time [4]: could not inhibit P. aeruginosa growth at concentrations lower than the MIC
cell lines inhibition, HepG2 [5]: more than 90%
Cell viability, HepG2 [5]: 79.5%
MIC, K. pneumoniae [6]: 12.5 µg/mL
cell lines inhibition, HEK293T [7]: more than 90%
Cell viability, HEK 293T [7]: 59.29%
MIC, P. aeruginosa [8]: 6.25 µg/mL

CC1(C)S[C@@H]2[C@H](NC(=O)[C@H](N)c3ccccc3)C(=O)N2[C@H]1C(=O)O [Ampicillin, reference compound]
MIC ([1]; Staphylococcus aureus, read-out: MIC, MSSA): > 100 µg/mL
Growth inhibition of K. pneumoniae, positive control [2, 9]: failed to inhibit the growth
MIC ([3]; Staphylococcus aureus, read-out: MIC, MRSA): > 100 µg/mL
Growth inhibition of P. aeruginosa, positive control [4, 9]: could inhibit the growth
MIC ([6]; Klebsiella pneumoniae, ATCC700603, read-out: MIC, K. pneumoniae): > 100 µg/mL
MIC ([8]; Pseudomonas aeruginosa, ATCC22108, read-out: MIC, P. aeruginosa): 100 µg/mL (≈ 286 µM)

RWKLFKKIEKVGRNVRDGLIKAGPAIAVIGQAKSLGK [Molecule 3, putative anti-HIV antimicrobial peptide, chemically synthesized by solid-phase method]
MIC, MSSA [1]: >500 µg/mL
Sensitivity of MSSA (ATCC 25923) to the peptide [1]: insensitive
Growth inhibition of K. pneumoniae over time [2]: able to suppress the growth of K. pneumoniae (ATCC 700603) at concentrations equal to the MIC (12.5 μg/ml) and 2x MIC
Period of growth suppression of K. pneumoniae ([2]; peptide concentration 6.25 μg/ml, OD620 time curve): 4 h
MIC, MRSA [3]: >500 µg/mL
Sensitivity of MRSA (ATCC 33591) to the peptide [3]: insensitive
Growth inhibition of P. aeruginosa over time [4]: able to inhibit P. aeruginosa at all the concentrations and for the duration of the experiment
cell lines inhibition, HepG2 [5]: more than 90%
Cell viability, HepG2 [5]: 79.5%
MIC, K. pneumoniae [6]: 12.5 µg/mL
cell lines inhibition, HEK293T [7]: more than 90%
Cell viability, HEK 293T [7]: 59.29%
MIC, P. aeruginosa [8]: 6.25 µg/mL

CLRYKKPECQSDWQCPGKKRCCPDTCGIKCLDPVDTPNPTRRKPGKCPVTYGQCLMLNPPNFCEMDGQCKRDLKCCMGM [Molecule 1, putative anti-HIV antimicrobial peptide, chemically synthesized by solid-phase method]
MIC, MSSA [1]: >500 µg/mL
MIC, MRSA [3]: >500 µg/mL
MIC, K. pneumoniae [6]: 500 µg/mL
MIC, P. aeruginosa [8]: >500 µg/mL

CLKSGAICHPVFCPRRYKQIGTCGLPGTKCCKKP [Molecule 8, putative anti-HIV antimicrobial peptide, chemically synthesized by solid-phase method]
MIC, MSSA [1]: >500 µg/mL
MIC, MRSA [3]: >500 µg/mL
MIC, K. pneumoniae [6]: >500 µg/mL
MIC, P. aeruginosa [8]: >500 µg/mL

WNPFKELEKAGQRVRDAIISAKPAVDVVGQATAIIK [Molecule 10, putative anti-HIV antimicrobial peptide, chemically synthesized by solid-phase method]
MIC, MSSA [1]: >500 µg/mL
MIC, MRSA [3]: >500 µg/mL
MIC, K. pneumoniae [6]: 500 µg/mL
MIC, P. aeruginosa [8]: >500 µg/mL
